Assay results reported in the supplement of paper PMC10307832.

Experiments:
Assay in all cases: relative viability (nuclei count vs DMSO), 5 days (fraction); higher = more cells survive
[1] = compound: C1=CC2=NC=CN=C2C=C1/C=C/3\C(=O)NC(=O)S3 + C[C@@H](Oc1cc(-c2cnn(C3CCNCC3)c2)cnc1N)c1c(Cl)ccc(F)c1Cl [Crizotinib] (partner 1 µM)
Method in brief: (§1)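 For relative viability, nuclei counts in treated wells were divided by those in vehicle wells. Lung cancer cell lines had been pin-tool dosed in 1536-well plates the day after seeding and cultured for 5 days, then fixed and stained in one step (final 0.05% Triton X-100, 1% formaldehyde, 1 ug/ml Hoechst) and imaged at 4×. Doses were one drug alone or a fixed anchor-drug dose plus five library-drug doses (not always all listed) in √10 steps, and values are duplicate-plate medians.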

[2] = compound: C1=CC2=NC=CN=C2C=C1/C=C/3\C(=O)NC(=O)S3 + CCNC(=O)c1noc(-c2cc(C(C)C)c(O)cc2O)c1-c1ccc(CN2CCOCC2)cc1 [Luminespib] (partner 0.01 µM)
Method in brief: as §1

BGJ398 + OSI-027 = compound: CCN1CCN(c2ccc(Nc3cc(N(C)C(=O)Nc4c(Cl)c(OC)cc(OC)c4Cl)ncn3)cc2)CC1 [BGJ398] + COc1cccc2cc(-c3nc([C@H]4CC[C@H](C(=O)O)CC4)n4ncnc(N)c34)[nH]c12 [OSI-027] (partner 0.5 µM)
Method in brief: as §1

[3] = compound: C1=CC2=NC=CN=C2C=C1/C=C/3\C(=O)NC(=O)S3 + Nc1nc2[nH]cc(CCc3ccc(C(=O)N[C@@H](CCC(=O)O)C(=O)O)cc3)c2c(=O)[nH]1 [Pemetrexed] (partner 0.2 µM)
Method in brief: as §1

Row | Cell Line | relative viability ([1]; first compound 0.02 µM) | relative viability ([1]; first compound 0.06325 µM) | relative viability ([1]; first compound 0.2 µM) | relative viability ([1]; first compound 0.6325 µM) | relative viability ([1]; first compound 2 µM) | relative viability ([2]; first compound 0.02 µM) | relative viability ([2]; first compound 0.06325 µM) | relative viability ([2]; first compound 0.2 µM) | relative viability ([2]; first compound 0.6325 µM) | relative viability ([2]; first compound 2 µM) | relative viability (BGJ398 + OSI-027; first compound 0.01 µM) | relative viability (BGJ398 + OSI-027; first compound 0.03162 µM) | relative viability (BGJ398 + OSI-027; first compound 0.1 µM) | relative viability (BGJ398 + OSI-027; first compound 0.3162 µM) | relative viability (BGJ398 + OSI-027; first compound 1 µM) | relative viability ([3]; first compound 0.02 µM) | relative viability ([3]; first compound 0.06325 µM) | relative viability ([3]; first compound 0.2 µM) | relative viability ([3]; first compound 0.6325 µM) | relative viability ([3]; first compound 2 µM)
1 | NCI-H650 | 0.805 | 0.707 | 0.627 | 0.714 | 0.652 | 0.719 | 0.872 | 0.755 | 0.709 | 0.627 | 0.477 | 0.519 | 0.535 | 0.505 | 0.503 | 1.03 | 0.996 | 1.02 | 0.864 | 0.659
2 | NCI-H661 | 0.87 | 0.809 | 0.945 | 1 | 0.987 | 0.958 | 0.961 | 0.937 | 0.943 | 1.05 | 0.618 | 0.723 | 0.766 | 0.752 | 0.742 | 0.94 | 1 | 0.982 | 0.845 | 0.905
3 | NCI-H838 | 0.778 | 1.12 | 0.737 | 0.751 | 0.823 | 0.295 | 0.446 | 0.267 | 0.26 | 0.324 | 0.297 | 0.357 | 0.376 | 0.338 | 0.294 | 0.247 | 0.272 | 0.25 | 0.238 | 0.197
4 | NCI-H1355 | 0.865 | 1.03 | 1.1 | 1.02 | 0.976 | 0.687 | 0.516 | 0.751 | 0.631 | 0.608 | 0.356 | 0.408 | 0.428 | 0.413 | 0.315 | 0.944 | 1.07 | 1.1 | 1 | 0.939
5 | NCI-H1437 | 0.829 | 0.901 | 0.805 | 0.917 | 1.02 | 1.09 | 1.14 | 1.05 | 1.08 | 1.12 | 0.807 | 0.867 | 0.873 | 0.865 | 0.926 | 0.345 | 0.291 | 0.293 | 0.289 | 0.265
6 | NCI-H1563 | 0.842 | 0.898 | 0.86 | 0.861 | 0.831 | 0.512 | 0.469 | 0.514 | 0.438 | 0.509 | 0.703 | 0.788 | 0.785 | 0.672 | 0.665 | 0.753 | 0.684 | 0.916 | 0.781 | 0.749
7 | NCI-H1650 | 0.91 | 1.19 | 0.974 | 0.966 | 1.22 | 0.221 | 0.194 | 0.209 | 0.209 | 0.171 | 0.487 | – | 0.56 | 0.273 | 0.396 | 0.376 | 0.381 | 0.319 | 0.357 | 0.394
8 | NCI-H1651 | 0.886 | 0.677 | 0.865 | 0.825 | 0.842 | 0.848 | 0.842 | 0.77 | 0.753 | 0.842 | 0.562 | 0.661 | 0.728 | 0.635 | 0.709 | 0.53 | 0.474 | 0.582 | 0.589 | 0.518
